According to US10457672B2, “γ-diketones as Wnt/β-catenin signaling pathway activators” (Samumed, LLC, priority 2013, dated 2019):
pEC50: −log10 of the molar value.

System: Wnt/β-catenin signaling pathway (Wnt-responsive SP5 promoter luciferase reporter in SW480 cells)
Experiment: Wnt reporter (SP5 promoter-firefly luciferase) activation assay in SW480 cells
Assay type: cell-based
Details: Homo sapiens; SW480 colon cancer cells with SP5 promoter luciferase reporter; 24 h after compound addition; normalized to DMSO; concentration at half maximal activation
Description: Compounds that enhance the Wnt activity, or Activators, were assayed as follows. Reporter cell lines were generated by stably transducing cells of colon cancer cell lines (with a lentiviral construct that included a Wnt-responsive promoter driving expression of the firefly luciferase gene).
Lentiviral constructs were made in which the SP5 promoter, a promoter having eight TCF/LEF binding sites derived from the SP5 promoter, was linked upstream of the firefly luciferase gene. The lentiviral constructs also included a hygromycin resistance gene as a selectable marker. The SP5 promoter construct was used to transduce SW480 cells, a colon cancer cell line having a mutated APC gene that generates a truncated APC protein, leading to de-regulated accumulation of β-catenin.
Cultured SW480 cells bearing a reporter construct were distributed at approximately 10,000 cells per well into 384- or 96-well multiwell plates. Compounds from a small molecule compound library were then added to the wells in half-log dilutions using a maximum concentration of three or ten micromolar. A series of control wells for each cell type received only buffer and compound solvent DMSO. Twenty-four hours after the addition of compound, reporter activity for luciferase was assayed, for example, by addition of the BrightGlo luminescence reagent (Promega) and the Victor3 plate reader (Perkin Elmer). Readings were normalized to DMSO only treated cells, and any activities above DMSO were considered activation. Compounds were considered activators if reporter activities were 2× fold or greater than DMSO. EC50 is the concentration at half maximal activation.

SMILES | pEC50
O=C(CCC(=O)c1ccc2c(c1)OCCO2)c1ccc(C(F)(F)F)cc1 [Compound 10, 1-(2,3-Dihydrobenzo[b][1,4]dioxin-6-yl)-4-(4-(trifluoromethyl)phenyl)butane-1,4-dione] | < 5.00
COc1ccccc1C(=O)CCC(=O)c1n[nH]c2ccccc12 [Compound 332, 1-(1H-Indazol-3-yl)-4-(2-methoxyphenyl)butane-1,4-dione] | 6.17
O=C(CCC(=O)c1ccccc1F)c1ccc2[nH]ncc2c1 [Compound 495, 1-(2-Fluorophenyl)-4-(1H-indazol-5-yl)butane-1,4-dione] | 8.10
Cc1ccc(C(=O)CCC(=O)c2ccc3c(c2)OCCO3)cc1 [Compound 344, 1-(2,3-Dihydrobenzo[b][1,4]dioxin-6-yl)-4-(p-tolyl)butane-1,4-dione] | 6.51
O=C(CCC(=O)c1ccccn1)c1ccc2sccc2c1 [Compound 310, 1-(Benzo[b]thiophen-5-yl)-4-(pyridin-2-yl)butane-1,4-dione] | 7.17
O=C(CCC(=O)c1ccc2[nH]cnc2c1)c1ccccc1 [Compound 274, 1-(1H-Benzo[d]imidazol-5-yl)-4-phenylbutane-1,4-dione] | 5.17
COc1ccccc1C(=O)CCC(=O)c1cccc2c1OCCO2 [Compound 242, 1-(2,3-Dihydrobenzo[b][1,4]dioxin-5-yl)-4-(2-methoxyphenyl)butane-1,4-dione] | 6.10
O=C(CCC(=O)c1cccc2c1OCCO2)c1ccc(C(F)(F)F)cc1 [Compound 238, 1-(2,3-Dihydrobenzo[b][1,4]dioxin-5-yl)-4-(4-(trifluoromethyl)phenyl)butane-1,4-dione] | < 5.00
O=C(CCC(=O)c1cccc2c1OCCO2)c1ccco1 [Compound 442, 1-(2,3-Dihydrobenzo[b][1,4]dioxin-5-yl)-4-(furan-2-yl)butane-1,4-dione] | 5.67
O=C(CCC(=O)c1ncccn1)c1ccccc1 [Compound 718, 1-Phenyl-4-(pyrimidin-2-yl)butane-1,4-dione] | 6.17
Cc1cccc(C(=O)CCC(=O)c2ccc3c(c2)OC(F)(F)O3)c1 [Compound 379, 1-(2,2-Difluorobenzo[d][1,3]dioxol-5-yl)-4-(m-tolyl)butane-1,4-dione] | < 5.00
COc1cccc(C(=O)CCC(=O)c2ccc3c(c2)OCO3)c1 [Compound 217, 1-(Benzo[d][1,3]dioxol-5-yl)-4-(3-methoxyphenyl)butane-1,4-dione] | 6.46
O=C(CCC(=O)c1ccccn1)c1ccc2[nH]ncc2c1 [Compound 507, 1-(1H-Indazol-5-yl)-4-(pyridin-2-yl)butane-1,4-dione] | 7.44
O=C(CCC(=O)c1ncccn1)c1ccc2c(c1)OCO2 [Compound 372, 1-(Benzo[d][1,3]dioxol-5-yl)-4-(pyrimidin-2-yl)butane-1,4-dione] | 7.01
O=C(CCC(=O)c1ccc2c(c1)OCO2)c1ccccc1 [Compound 222, 1-(Benzo[d][1,3]dioxol-5-yl)-4-phenylbutane-1,4-dione] | 8.52
O=C(CCC(=O)c1ccco1)c1ccc2c(c1)OCCO2 [Compound 346, 1-(2,3-Dihydrobenzo[b][1,4]dioxin-6-yl)-4-(furan-2-yl)butane-1,4-dione] | 7.62

SMILES | pEC50
Cc1cccc(C(=O)CCC(=O)c2n[nH]c3ccccc23)c1 [Compound 529, 1-(1H-Indazol-3-yl)-4-(m-tolyl)butane-1,4-dione] | 6.16
COc1ccccc1C(=O)CCC(=O)c1cccs1 [Compound 562, 1-(2-Methoxyphenyl)-4-(thiophen-2-yl)butane-1,4-dione] | 6.97
Cc1ccc(C(=O)CCC(=O)c2ccc3[nH]ncc3c2)cc1 [Compound 503, 1-(1H-Indazol-5-yl)-4-(p-tolyl)butane-1,4-dione] | 6.31
O=C(CCC(=O)c1ccccc1F)c1ccc2occc2c1 [Compound 278, 1-(Benzofuran-5-yl)-4-(2-fluorophenyl)butane-1,4-dione] | 7.74
O=C(CCC(=O)c1n[nH]c2ccccc12)c1ccccc1C(F)(F)F [Compound 326, 1-(1H-Indazol-3-yl)-4-(2-(trifluoromethyl)phenyl)butane-1,4-dione] | 6.93
COc1ccc(C(=O)CCC(=O)c2ncccn2)cc1OC [Compound 431, 1-(3,4-Dimethoxyphenyl)-4-(pyrimidin-2-yl)butane-1,4-dione] | < 5.00
COc1ccc(C(=O)CCC(=O)c2cncnc2)cc1OC [Compound 430, 1-(3,4-Dimethoxyphenyl)-4-(pyrimidin-5-yl)butane-1,4-dione] | < 5.00
Cc1ccccc1C(=O)CCC(=O)c1cccs1 [Compound 560, 1-(Thiophen-2-yl)-4-(o-tolyl)butane-1,4-dione] | 7.26
O=C(CCC(=O)c1ccco1)c1ccc2c(c1)CCCO2 [Compound 365, 1-(Chroman-6-yl)-4-(furan-2-yl)butane-1,4-dione] | 7.48
O=C(CCC(=O)c1c[nH]c2ccccc12)c1cccs1 [Compound 524, 1-(1H-Indol-3-yl)-4-(thiophen-2-yl)butane-1,4-dione] | 7.06
O=C(CCC(=O)c1cccnn1)c1ccc2c(c1)OCCO2 [Compound 341, 1-(2,3-Dihydrobenzo[b][1,4]dioxin-6-yl)-4-(pyridazin-3-yl)butane-1,4-dione] | 7.02
O=C(CCC(=O)c1ccc2c(c1)OCO2)c1cccc(F)c1 [Compound 214, 1-(Benzo[d][1,3]dioxol-5-yl)-4-(3-fluorophenyl)butane-1,4-dione] | 8.00
O=C(CCC(=O)c1ccccc1C(F)(F)F)c1ccc2c(c1)CCCO2 [Compound 68, 1-(Chroman-6-yl)-4-(2-(trifluoromethyl)phenyl)butane-1,4-dione] | 8.22
O=C(CCC(=O)c1c[nH]c2ccccc12)c1ccc(C(F)(F)F)cc1 [Compound 316, 1-(1H-Indol-3-yl)-4-(4-(trifluoromethyl)phenyl)butane-1,4-dione] | < 5.00
COc1ccc(C(=O)CCC(=O)c2cccnc2)cc1OC [Compound 208, 1-(3,4-Dimethoxyphenyl)-4-(pyridin-3-yl)butane-1,4-dione] | < 5.00

Same assay, conditions: SW480 colon cancer cells with SP5 promoter luciferase reporter; 24 h after compound addition; normalized to DMSO; concentration at half maximal activation

SMILES | pEC50
O=C(CC(=O)c1cc(O)c2c(c1O)OCCO2)c1ccccc1 [Compound 3, 1-(5,8-dihydroxy-2,3-dihydrobenzo[b][1,4]dioxin-6-yl)-3-phenylpropane-1,3-dione] | < 5.00
